From patent US12662491B2 (Redona Therapeutics, Inc., priority 2020, dated 2026)

target: T1, Zcchc11 enzyme (Homo sapiens, UniProt Q5TAX3); experiment: TUTase assay (Zcchc11 assay, Lin28a-dependent polyuridylation of pre-let-7); assay type: biochemical; details: Lin28a-dependent Zcchc11 (Z11) TUTase activity; read-out: Potency Lin28a-dep Z11 IC50
T1 construct: made in house; host or cells: HEK293 cells (Zcchc11); E. coli Rosetta II (LIN28A)
T1 sequence (Q5TAX3 212-1420): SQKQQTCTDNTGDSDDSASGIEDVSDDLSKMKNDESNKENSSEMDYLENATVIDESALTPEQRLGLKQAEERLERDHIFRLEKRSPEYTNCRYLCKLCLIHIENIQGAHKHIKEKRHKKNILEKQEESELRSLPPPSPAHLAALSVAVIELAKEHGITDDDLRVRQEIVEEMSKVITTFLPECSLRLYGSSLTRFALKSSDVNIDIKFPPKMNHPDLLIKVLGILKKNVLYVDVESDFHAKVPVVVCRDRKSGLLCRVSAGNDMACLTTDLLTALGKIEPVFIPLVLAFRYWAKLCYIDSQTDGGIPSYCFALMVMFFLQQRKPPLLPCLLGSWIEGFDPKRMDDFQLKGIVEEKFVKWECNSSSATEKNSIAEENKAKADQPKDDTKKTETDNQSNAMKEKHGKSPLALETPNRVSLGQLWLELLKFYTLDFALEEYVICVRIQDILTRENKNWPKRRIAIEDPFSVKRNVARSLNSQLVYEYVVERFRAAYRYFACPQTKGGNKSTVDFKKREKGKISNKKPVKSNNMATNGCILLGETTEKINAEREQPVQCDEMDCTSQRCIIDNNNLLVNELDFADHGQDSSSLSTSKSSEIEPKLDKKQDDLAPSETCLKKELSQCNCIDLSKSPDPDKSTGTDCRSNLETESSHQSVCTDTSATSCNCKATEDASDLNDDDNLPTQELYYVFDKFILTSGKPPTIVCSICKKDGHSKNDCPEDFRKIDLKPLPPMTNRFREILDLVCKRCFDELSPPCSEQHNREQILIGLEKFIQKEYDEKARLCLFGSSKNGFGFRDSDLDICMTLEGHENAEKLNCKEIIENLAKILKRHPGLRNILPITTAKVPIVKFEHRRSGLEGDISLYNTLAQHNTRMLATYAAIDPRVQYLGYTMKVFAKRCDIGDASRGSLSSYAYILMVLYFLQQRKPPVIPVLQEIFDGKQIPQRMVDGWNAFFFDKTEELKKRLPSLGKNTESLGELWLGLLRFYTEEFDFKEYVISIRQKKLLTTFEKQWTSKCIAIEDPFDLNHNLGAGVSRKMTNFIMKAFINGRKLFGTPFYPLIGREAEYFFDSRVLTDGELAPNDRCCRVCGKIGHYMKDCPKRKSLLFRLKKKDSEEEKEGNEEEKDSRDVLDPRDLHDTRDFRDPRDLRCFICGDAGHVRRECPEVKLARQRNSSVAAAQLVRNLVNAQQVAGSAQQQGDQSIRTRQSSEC
In short: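 Polyuridylation measured as fluorescein loss when a rhodamine-labelled A20 probe anneals to U-tails added to fluorescein pre-let-7 (2 nM). Reaction: truncated Zcchc11 0.2 nM, E. coli-made LIN28A 10 nM, UTP 5 uM, HEPES pH 7.3, room temperature. Initial rates fitted to four-parameter IC50.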

| SMILES | IC50 |
| --- | --- |
| Nc1ccc(-n2cc(C(=O)O)c(=O)c3cc(Cl)c(N4CCC[C@@H]4COc4ncccc4F)cc32)cn1 [Compound 214, 1-(6-Aminopyridin-3-yl)-6-chloro-7-[(2R)-2-{[(3-fluoropyridin-2-yl)oxy]methyl}pyrrolidin-1-yl]-4-oxoquinoline-3-carboxylic acid] | ≤ 1000 nM |
| O=C(O)c1cn(-c2ccc3c(c2F)CCN3)c2cc(N3CCC[C@@H]3COc3ccccn3)c(F)cc2c1=O [Compound 216, 6-Fluoro-1-(4-fluoro-2,3-dihydro-1H-indol-5-yl)-4-oxo-7-[(2R)-2-[(pyridin-2-yloxy)methyl]pyrrolidin-1-yl]quinoline-3-carboxylic acid] | ≤ 1000 nM |
| N#Cc1cc2c(=O)c(C(=O)O)cn(-c3ccc(N)nc3)c2cc1N1CCC[C@@H]1COc1ncccc1F [Compound 217] | ≤ 1000 nM |
| COCCN(C)C1CN(c2ccc(-n3cc(C(=O)O)c(=O)c4cc(C#N)c(N5CCC[C@@H]5COc5ncccc5Cl)cc43)cn2)C1 [Compound 218, 7-[(2R)-2-[[(3-chloropyridin-2-yl)oxy]methyl]pyrrolidin-1-yl]-6-cyano-1-(6-[3-[(2-methoxyethyl) (methyl)amino]azetidin-1-yl]pyridin-3-yl)-4-oxoquinoline-3-carboxylic acid] | ≤ 1000 nM |
| CN(C)C1CN(c2ccc(-n3cc(C(=O)O)c(=O)c4cc(Cl)c(N5CCC5COc5ccccn5)cc43)cn2)C1 (stereo not drawn) [Compound 219, 6-chloro-1-[6-[3-(dimethyl-amino)azetidin-1-yl]pyridin-3-yl]-4-oxo-7-[2-[(pyridin-2-yloxy)methyl]azetidin-1-yl]quinoline-3-carboxylic acid] | 1000 to 10000 nM |
| CN(C)C1CN(c2ccc(-n3cc(C(=O)O)c(=O)c4cc(C#N)c(N5C(=O)CC[C@@H]5COc5ncccc5Cl)cc43)cn2)C1 [Compound 220, 7-[(2R)-2-[[(3-chloropyridin-2-yl)oxy]methyl]-5-oxopyrrolidin-1-yl]-6-cyano-1-[6-[3-(dimethyl-amino)azetidin-1-yl]pyridin-3-yl]-4-oxoquinoline-3-carboxylic acid] | 10000 to 50000 nM |
| CN(C)C1CN(c2ccc(-n3cc(C(=O)O)c(=O)c4cc(Cl)c(N5CC6CC5(COc5ncccc5Cl)C6)cc43)cn2)C1 [Compound 221, 6-chloro-7-(1-[[(3-chloropyridin-2-yl)oxy]methyl]-2-azabicyclo [2.1.1]hexan-2-yl)-1-[6-[3-(dimethyl-amino)azetidin-1-yl]pyridin-3-yl]-4-oxoquinoline-3-carboxylic acid] | 1000 to 10000 nM |
| CN(C)C1CN(c2ccc(-n3cc(C(=O)O)c(=O)c4cc(F)c(N5CCC[C@@H]5COc5ncccc5Cl)cc43)cn2)C1 [Compound 222, 7-[(2R)-2-[[(3-chloropyridin-2-yl)oxy]methyl]pyrrolidin-1-yl]-1-[6-[3-(dimethyl-amino)azetidin-1-yl]pyridin-3-yl]-6-fluoro-4-oxoquinoline-3-carboxylic acid] | ≤ 1000 nM |
| CN(C)C1CN(c2ccc(-n3cc(C(=O)O)c(=O)c4cc(Cl)c(N5CC6(CCC6)CC5COc5ncccc5Cl)cc43)cn2)C1 (stereo not drawn) [Compound 226, 6-Chloro-7-(7-(((3-chloropyridin-2-yl)oxy)methyl)-6-azaspiro [3.4]octan-6-yl)-1-(6-(3-(dimethyl-amino)azetidin-1-yl)pyridin-3-yl)-4-oxo-1,4-dihydro-quinoline-3-carboxylic acid compound with formic acid (1:1)] | ≤ 1000 nM |
| COc1ccc(Cl)c(OCC2N(c3cc4c(cc3Cl)c(=O)c(C(=O)O)cn4-c3cnnc(N)c3)CCC2(C)C)n1 (stereo not drawn) [Compound 228, 1-(6-Amino-pyridazin-4-yl)-6-chloro-7-(2-(((3-chloro-6-methoxy-pyridin-2-yl)oxy)methyl)-3,3-dimethyl-pyrrolidin-1-yl)-4-oxo-1,4-dihydro-quinoline-3-carboxylic acid] | ≤ 1000 nM |
| COc1ccc(Cl)c(OCC2N(c3cc4c(cc3Cl)c(=O)c(C(=O)O)cn4-c3cc(N)cnn3)CCC2(C)C)n1 (stereo not drawn) [Compound 229, 1-(5-Amino-pyridazin-3-yl)-6-chloro-7-(2-(((3-chloro-6-methoxy-pyridin-2-yl)oxy)methyl)-3,3-dimethyl-pyrrolidin-1-yl)-4-oxo-1,4-dihydro-quinoline-3-carboxylic acid] | ≤ 1000 nM |

Second part, the compound after the results:

| IC50 | SMILES |
| --- | --- |
| ≤ 1000 nM | CO/N=C1/CCN(c2cc3c(cc2Cl)c(=O)c(C(=O)O)cn3-c2ccc(N3CC(N(C)C)C3)nc2)C1COc1nc(OC)ccc1Cl (stereo not drawn) [Compound 232, (Z)-6-chloro-7-(2-(((3-chloro-6-methoxy-pyridin-2-yl)oxy)methyl)-3-(methoxyimino)pyrrolidin-1-yl)-1-(6-(3-(dimethyl-amino)azetidin-1-yl)pyridin-3-yl)-4-oxo-1,4-dihydro-quinoline-3-carboxylic acid] |
| ≤ 1000 nM | CO/N=C1\CCN(c2cc3c(cc2Cl)c(=O)c(C(=O)O)cn3-c2ccc(N3CC(N(C)C)C3)nc2)C1COc1nc(OC)ccc1Cl (stereo not drawn) [Compound 233, (E)-6-chloro-7-(2-(((3-chloro-6-methoxy-pyridin-2-yl)oxy)methyl)-3-(methoxyimino)pyrrolidin-1-yl)-1-(6-(3-(dimethyl-amino)azetidin-1-yl)pyridin-3-yl)-4-oxo-1,4-dihydro-quinoline-3-carboxylic acid] |
| ≤ 1000 nM | O=C(O)c1cn(-c2ccc3c(c2)CNC3)c2cc(N3CCC[C@@H]3COc3ncccc3Cl)c(Cl)cc2c1=O [Compound 236, 6-chloro-7-[(2R)-2-[[(3-chloropyridin-2-yl)oxy]methyl]pyrrolidin-1-yl]-1-(2,3-dihydro-1H-isoindol-5-yl)-4-oxoquinoline-3-carboxylic acid] |
| ≤ 1000 nM | CC(=O)N1Cc2ccc(-n3cc(C(=O)O)c(=O)c4cc(Cl)c(N5CCC[C@@H]5COc5ncccc5Cl)cc43)cc2C1 [Compound 237, 1-(2-acetyl-1,3-dihydro-isoindol-5-yl)-6-chloro-7-[(2R)-2-[[(3-chloropyridin-2-yl)oxy]methyl]pyrrolidin-1-yl]-4-oxoquinoline-3-carboxylic acid] |
| ≤ 1000 nM | O=C(O)c1cn(-c2cnc(OCCO)cn2)c2cc(N3CCC[C@@H]3COc3ncccc3Cl)c(Cl)cc2c1=O [Compound 238, 6-chloro-7-[(2R)-2-[[(3-chloropyridin-2-yl)oxy]methyl]pyrrolidin-1-yl]-1-[5-(2-hydroxy-ethoxy)pyrazin-2-yl]-4-oxoquinoline-3-carboxylic acid] |
| ≤ 1000 nM | O=C(O)c1cn(-c2cnn(C3CN(CC(F)(F)F)C3)c2)c2cc(N3CCC[C@@H]3COc3ncccc3Cl)c(Cl)cc2c1=O [Compound 239, 6-chloro-7-[(2R)-2-[[(3-chloropyridin-2-yl)oxy]methyl]pyrrolidin-1-yl]-4-oxo-1-[1-[1-(2,2,2-trifluoro-ethyl)azetidin-3-yl]pyrazol-4-yl]quinoline-3-carboxylic acid] |
| ≤ 1000 nM | O=C(O)c1cn(-c2cnccn2)c2cc(N3CCC[C@@H]3COc3ncccc3Cl)c(F)cc2c1=O [Compound 240, 7-[(2R)-2-[[(3-chloropyridin-2-yl)oxy]methyl]pyrrolidin-1-yl]-6-fluoro-4-oxo-1-(pyrazin-2-yl)quinoline-3-carboxylic acid] |
| ≤ 1000 nM | CCN1CC(n2cc(-n3cc(C(=O)O)c(=O)c4cc(Cl)c(N5CCC[C@@H]5COc5ncccc5Cl)cc43)cn2)C1 [Compound 241] |
| ≤ 1000 nM | COCCn1cc(-n2cc(C(=O)O)c(=O)c3cc(C#N)c(N4CCC[C@@H]4COc4ncccc4Cl)cc32)cn1 [Compound 242, 7-[(2R)-2-[[(3-chloropyridin-2-yl)oxy]methyl]pyrrolidin-1-yl]-6-cyano-1-[1-(2-methoxyethyl)pyrazol-4-yl]-4-oxoquinoline-3-carboxylic acid] |
| ≤ 1000 nM | O=C(O)c1cn(-c2cnn(C3CNC3)c2)c2cc(N3CCC[C@@H]3COc3ncccc3Cl)c(Cl)cc2c1=O [Compound 243, 1-[1-(azetidin-3-yl)pyrazol-4-yl]-6-chloro-7-[(2R)-2-[[(3-chloropyridin-2-yl)oxy]methyl]pyrrolidin-1-yl]-4-oxoquinoline-3-carboxylic acid] |
